The results in this text go back to patent publication US20240335462A1, “SULFUR/PHOSPHORUS-CONTAINING ARYL COMPOUND AND APPLICATION THEREOF” (MEDSHINE DISCOVERY INC., priority 2021, published 2024).

Where a name gives a salt, the structure may show the parent alone. Read-outs that look alike come from different tables or passages of the source. Marks after values point to notes of the source that are not given here.

Data set [1] has as its target Ba/F3-FL-TYK2-E957D cells (Homo sapiens, UniProt P29597, E957D, cells depend on it). The data set can be described thus: Proliferation of Ba/F3-FL-TYK2-E957D cells (CellTiter-Glo). Type of data set: cell-based, mouse. Conditions: 72 hours, read-out: Half maximal inhibitory concentration IC50 for cells Ba/F3-FL-TYK2-E957D. An excerpt: Adenosine triphosphate (ATP) serves as a universal energy carrier in various life processes, representing the smallest unit of energy storage and transfer. The CellTiter-Glo™ Luminescent Cell Viability Assay Kit utilizes luciferase as a detection agent. During the luminescent process, luciferase requires the participation of ATP. By adding CellTiter-Glo™ reagent to the cell culture medium and measuring the luminescence, the light signal was directly proportional to the amount of ATP in the system, and ATP was positively correlated with the number of viable cells. Therefore, cell proliferation can be detected by measuring ATP content using the CellTiter-Glo kit. In this test, the cell lines used were Ba/F3-FL-TYK2-E957D and Ba/F3-TEL-TYK2. Ba/F3-FL-TYK2-E957D cells can stably express the exogenously introduced human TYK2-E957D gene, and the TYK2-E957D gene sequence contains both JH1 and JH2 domains. On the other hand, Ba/F3-TEL-TYK2 cells can stably express the exogenously introduced human TEL-TYK2 gene, and the TEL-TYK2 gene sequence contains only the JH1 domain of TYK2.
The cell lines were cultured in an incubator at 37° C. with 5% CO2. Regular passaging was performed, and cells in the logarithmic growth phase were selected for plating.
• a) The test compounds were prepared into a 10 mM solution with DMSO, and then diluted to 0.3 or 1 mM with DMSO. • b) Preparation of 1000× compound storage plate (tube): The compounds were 3-fold serially diluted from the highest concentration to the lowest concentration, creating 9 different concentrations. • c) Preparation of 20× compound working solution: 49 μL of cell culture medium was added to a flat-bottomed 96-well transparent drug plate. From the 1000× compound storage plate, 1 μL of the compound was pipetted into the cell culture medium in the 96-well transparent drug plate. In the solvent control, 1 μL of DMSO was added. After the compound or DMSO was added, the mixture was homogenized using a multi-channel pipette.
• a) Cells were stained with trypan blue and viable cells were counted to ensure a cell viability of 90% or more. • b) 95 μL of cell suspension (2000 cells/well) was added to each well of the compound assay cell plate, and cell-free culture medium containing 0.1% DMSO was added to the Min control wells. • c) Administration in the compound assay cell plate: 5 μL of 20× compound working solution was added to the cell culture plate. 5 μL of DMSO-cell culture medium mixture was added to the Max control wells. The final concentration of DMSO was 0.1%. • d) The culture plate was then incubated in an incubator at 37° C. with 5% CO2 for 72 hours.
The following steps were conducted in accordance with the instructions of the Promega CellTiter-Glo Luminescent Cell Viability Assay Kit (Promega-G7573). • a) CellTiter-Glo buffer was thawed and brought to room temperature. • b) CellTiter-Glo substrate was also brought to room temperature. • c) CellTiter-Glo buffer was added to a bottle of CellTiter-Glo substrate to dissolve the substrate, thereby preparing CellTiter-Glo working solution. • d) The mixture was slowly vortexed and shaken to be fully dissolved. • e) The cell culture plate was removed and allowed to equilibrate to room temperature for 10 minutes. • f) 50 μL (equal to half the volume of cell culture medium in each well) of CellTiter-Glo working solution was added to each well. • g) The culture plate was shaken on an orbital shaker for 2 minutes to induce cell lysis. • h) The plate was then left at room temperature for 10 minutes to stabilize the luminescent signal. • i) The luminescent signal was detected using a SpectraMax Paradigm plate reader.
Data analysis was conducted using GraphPad Prism 5.0 software. Nonlinear S-curve regression was employed to fit the data and generate dose-response curves. From these curves, the IC50 values were calculated.

A short description of data set [2]: Pharmacokinetic testing in mice. Type of data set: in vivo, male CD-1 mice. Conditions: mouse; for Vd / AUC(0-t) / half-life / C0 / bioavailability / Cmax / Tmax: male, CD-1, plasma; for Vd: read-out: Apparent volume of distribution Vd; for AUC(0-t): read-out: Area under the curve AUC0-last; for half-life: read-out: Half-life T1/2 (converted); for C0: read-out: Starting concentration C0; for bioavailability: read-out: Bioavailability F %; for Cmax: read-out: Peak concentration Cmax; for Tmax: read-out: Time to peak concentration Tmax. The protocol:
The objective was to study the pharmacokinetic behavior of the compound of the present disclosure in mice and evaluate the pharmacokinetic characteristics, using male CD-1 mice aged 7 to 9 weeks as test animals. The drug concentrations in plasma at different time points after a single intravenous injection (IV) and oral administration (PO) of the compound were determined using LC/MS/MS.
The pharmacokinetic characteristics of the compound in rodents following intravenous injection and oral administration were tested using a standard protocol. Test animals were fasted for 10 to 14 hours before administration and allowed to feed 4 hours post-administration. The compound was prepared into a clear solution with the appropriate solvent for both IV (intravenous injection) and PO (oral gavage) administration. The solvent was 10% DMSO+10% solutol+80% (10% HP-β-CD aqueous solution). Whole blood samples were collected within 24 hours, centrifuged at 6000 g for 3 minutes, and the supernatant was separated to obtain plasma samples. Protein precipitation was performed by adding four times the volume of acetonitrile solution containing internal standard to the plasma samples. After centrifugation, the supernatant was added with an equal volume of water and then centrifuged before being subjected to LC-MS/MS analysis for quantifying plasma drug concentration. Pharmacokinetic parameters such as peak concentration, time to peak concentration, clearance, half-life, area under the drug-time curve, and bioavailability were calculated.

In data set [3] the test system is IL-23-induced psoriasis-like skin lesions. The data set is described as follows: Mouse psoriasis-like model induced by IL-23. Type of data set: in vivo, C57BL/6 mice. Further details: Total score for epidermal hyperplasia of ear pinnae / AUC of total score for epidermal hyperplasia of ear pinnae / Pathological score: Degree of keratinization / Pathological score: Epidermal thickness / Pathological score: Dermal thickness / Pathological score: Inflammatory cell infiltration / Comprehensive pathological score: scale not given here. From the text: The purpose of this experiment was to evaluate the prophylactic and therapeutic effect of the test substance on IL-23-induced psoriasis-like skin lesions in mice by intradermal injection of IL-23 into the ear pinnae in a psoriasis-like skin lesion model.
Female C57BL/6 mice of qualified body weight were randomly divided into groups, with 6 mice per group. The grouping and administration information was as follows. The groups were: blank control group, model group, positive control Ustekinumab (5 mg/kg) group, WX-011A hydrochloride (30, 50 mg/kg) group, and WX-020 sulfate (30, 50 mg/kg) group. Except for the blank control group, the animals in the other groups received an intradermal injection of IL-23 (3 μg/10 μL/mouse/day, QD) in the right ear for 8 consecutive days (Day 0 to Day 7). The blank control group received an intradermal injection of an equal volume of saline solution (10 μL/mouse/day, QD) in the right ear for 8 consecutive days (Day 0 to Day 7). Concurrent with model induction, the solvent or test drug was orally administered twice a day (Bid) at 6-hour intervals for 8 consecutive days (Day 0 to Day 7). The positive control was subcutaneously injected on Day 0 and Day 3 (a total of 2 doses). During the administration period, the body weight of the animals was monitored every two days. On Day 0, Day 2, Day 4, Day 6 (all before IL-23 injection), and Day 8, the thickness of the right ear of the mice was measured, and the appearance of the ear pinnae was observed and scored.
The compounds were all prepared into a clear solution with 10% DMSO+[…] as a solvent for PO (oral gavage) administration. Administration volume parameters: 10 mL/kg based on the body weight of the mice.
After grouping, IL-23 (3 μg/10 μL/mouse/day, QD) was injected intradermally into the right ears of the mice for 8 consecutive days (Day 0 to Day 7). Measurements of the thickness of the right ear and observations and scoring of the appearance of the ear pinnae were performed on Day 0, Day 2, Day 4, Day 6 (all before IL-23 injection), and Day 8. At the end of the experiment (Day 8), the left ear tissues of the mice from groups G4 to G10 (3 animals per group at each time point) were collected. The right ear, which had been modeled, was excised, an 8 mm ear punch was taken along the edge of the pinna, and its weight was measured. The excised right ear tissues were fixed in formalin for histopathological examination (H&E staining).
Concurrent with model induction, corresponding drug treatment was given for administration. Except for the positive control drug (Ustekinumab), which was subcutaneously injected on Day 0 and Day 3 (once a day), control and test drugs for each dose group were orally administered by gavage twice a day at 6-hour intervals for 8 consecutive days (Day 0 to Day 7).
The pathological scoring of mouse ear tissue sections was conducted according to the criteria in Table 33.
The experimental data are represented as Mean±SD; statistical analysis was performed using IBM SPSS Statistics 21, with p<0.05 considered to indicate a statistically significant difference between the two groups. The effect of the test substance on the thickness of mouse ears in the IL-23 induced mouse pinna epidermal hyperplasia model is shown in Table 34. The effect of the test substance on the total score and AUC for […] induced mouse pinna epidermal hyperplasia is shown in Table 35.

[4] abbreviates: 5 mg/kg SC on Day 0 and Day 3, Day 0.
The mark [5] stands for this setting: 5 mg/kg SC on Day 0 and Day 3, Day 2.
[6] abbreviates: 5 mg/kg SC on Day 0 and Day 3, Day 4.
Where [7] appears, read: 5 mg/kg SC on Day 0 and Day 3, Day 6.
The mark [8] stands for this setting: 5 mg/kg SC on Day 0 and Day 3, Day 8.
Where [9] appears, read: 5 mg/kg SC, right ear H&E sections.

Sequence of Ba/F3-FL-TYK2-E957D cells (P29597 whole entry E957D): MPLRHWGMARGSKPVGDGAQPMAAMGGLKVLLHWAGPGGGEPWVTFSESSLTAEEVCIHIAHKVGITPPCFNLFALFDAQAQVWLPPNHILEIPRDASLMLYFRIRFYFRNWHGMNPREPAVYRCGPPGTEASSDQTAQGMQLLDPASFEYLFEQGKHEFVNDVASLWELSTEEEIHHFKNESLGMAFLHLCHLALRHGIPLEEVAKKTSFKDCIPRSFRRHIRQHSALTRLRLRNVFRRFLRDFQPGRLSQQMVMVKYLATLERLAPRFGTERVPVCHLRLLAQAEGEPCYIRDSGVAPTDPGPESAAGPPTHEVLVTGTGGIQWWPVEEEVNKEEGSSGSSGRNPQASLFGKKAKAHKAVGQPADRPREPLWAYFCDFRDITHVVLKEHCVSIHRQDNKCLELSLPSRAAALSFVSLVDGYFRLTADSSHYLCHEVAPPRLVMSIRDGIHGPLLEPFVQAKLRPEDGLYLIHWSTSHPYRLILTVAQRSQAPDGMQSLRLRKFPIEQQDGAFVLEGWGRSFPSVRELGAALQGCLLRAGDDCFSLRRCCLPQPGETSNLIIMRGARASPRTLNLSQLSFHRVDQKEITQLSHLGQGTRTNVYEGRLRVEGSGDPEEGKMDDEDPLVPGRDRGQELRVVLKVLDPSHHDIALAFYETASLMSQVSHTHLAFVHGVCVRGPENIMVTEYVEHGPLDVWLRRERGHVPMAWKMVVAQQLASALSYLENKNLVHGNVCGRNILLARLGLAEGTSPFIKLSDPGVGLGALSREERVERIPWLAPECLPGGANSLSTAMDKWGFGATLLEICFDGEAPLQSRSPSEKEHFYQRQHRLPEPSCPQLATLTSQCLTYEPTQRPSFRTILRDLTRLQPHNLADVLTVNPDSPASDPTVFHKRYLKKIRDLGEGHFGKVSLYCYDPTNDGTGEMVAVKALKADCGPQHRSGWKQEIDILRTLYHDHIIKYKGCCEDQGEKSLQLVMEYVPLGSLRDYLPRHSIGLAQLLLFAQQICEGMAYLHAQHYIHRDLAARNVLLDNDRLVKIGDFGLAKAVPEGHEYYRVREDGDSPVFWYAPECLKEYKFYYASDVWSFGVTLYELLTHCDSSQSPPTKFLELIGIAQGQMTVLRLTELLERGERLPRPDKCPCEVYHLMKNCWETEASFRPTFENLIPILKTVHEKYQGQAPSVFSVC

With `[2H]C([2H])([2H])NC(=O)c1cnc(NC(=O)C2CC2)cc1Nc1cccc(-c2ncc(S(=O)(=O)N(C)C)cn2)c1OC` [WX-005], the GI50 in data set [1] was 2.2 nM.

As to `CCN=S(=O)(c1cnc(-c2cccc(Nc3cc(NC(=O)C4CC4)nnc3C(=O)NC)c2OC)nc1)C(C)C` (stereo not drawn) [Hydrochloride of WX-015], the GI50 in data set [1] worked out at 13 nM.

On to `CCP(=O)(CC)c1ccc(-c2cccc(Nc3cc(NC(=O)C4CC4)nnc3C(=O)NC)c2OC)nc1` [WX-022], for which, in data set [1], the GI50 was 13.7 nM.

For the compound `COc1c(Nc2cc(NC(=O)C3CC3)nnc2C(N)=O)cccc1-c1ccc(P(=O)(C2CC2)C2CC2)cn1` [Trifluoroacetate of WX-035], in data set [1], the GI50 was 6.7 nM.

Consider `CN=S(=O)(c1cnc(-c2cccc(Nc3cc(NC(=O)C4CC4)nnc3C(=O)NC)c2OC)nc1)C(C)C` (stereo not drawn) [WX-013], for which the GI50 in data set [1] was found to be 12.1 nM.

Regarding `CNC(=O)c1nnc(NC(=O)C2CC2)cc1Nc1cccc(-c2ccc(S(=N)(=O)C(C)C)nn2)c1OC` (single isomer, unassigned) [WX-036A], the GI50 in data set [1] was found to be 8.3 nM.

For `CCP(=O)(CC)c1ccc(-c2cccc(Nc3cc(NC(=O)C4CC4)ncc3C(=O)NC)c2OC)cc1` [WX-025], in data set [1], the GI50 came out at 12.7 nM.

A word on the bioavailability: it is dose-corrected exposure relative to a reference, in per cent. Regarding `CNC(=O)c1nnc(NC(=O)C2CC2)cc1Nc1cccc(-c2ncc(S(=N)(=O)C(C)C)cn2)c1OC` (stereo not drawn) [WX-011], in data set [2] (IV 1 mg/kg), the Vd turned out to be 0.7 L/kg, the AUC(0-t) was found to be 4.79 µM·h, the half-life is 3.2 h and the C0 turned out to be 5.42 µM. For the same compound, the “Apparent clearance Cl” value in data set [2] (IV 1 mg/kg) turned out to be 6.6 mL/min/kg. Further, in data set [2] (PO 10 mg/kg), the AUC(0-t) turned out to be 25 µM·h, the bioavailability was 52%, the Cmax was 10.2 µM and the Tmax was 0.5 h.

On to `COc1c(Nc2cc(NC(=O)C3CC3)nnc2C(N)=O)cccc1-c1ncc(S(=N)(=O)C(C)C)cn1` (stereo not drawn) [Hydrochloride of WX-031], for which the GI50 in data set [1] came to 2.6 nM.

As for `CNC(=O)c1nnc(NC(=O)C2CC2)cc1Nc1cccc(-c2ccc(S(=N)(=O)C(C)C)cn2)c1OC` (stereo not drawn) [WX-012], in data set [2] (IV 1 mg/kg), the Vd was 2.9 L/kg, the AUC(0-t) was 2.46 µM·h, the half-life was 4.4 h and the C0 was determined as 2.75 µM. For the same compound, in data set [2] (IV 1 mg/kg), the “Apparent clearance Cl” value stood at 12.8 mL/min/kg. Moreover, in data set [2] (PO 10 mg/kg), the AUC(0-t) is 16.7 µM·h, the bioavailability was 68%, the Cmax was 12.4 µM and the Tmax was 0.3 h.

In the case of “Ustekinumab: positive control Ustekinumab (anti-IL-12/IL-23), Selleck, subcutaneously injected [reference compound]”, in data set [3] (setting [4]), the “Ear thickness (mm)” value is recorded as 0.196 mm and the “Total score for epidermal hyperplasia of ear pinnae” value is recorded as 0.00. Also, the “AUC of total score for epidermal hyperplasia of ear pinnae” value in data set [3] (5 mg/kg SC on Day 0 and Day 3, Day 0 to Day 8) is 2.83**. In data set [3] (setting [5]), the “Ear thickness (mm)” value is on record as 0.277* mm and the “Total score for epidermal hyperplasia of ear pinnae” value is reported as 0.00. Moreover, in data set [3] (setting [6]), the “Ear thickness (mm)” value is reported as 0.288** mm and the “Total score for epidermal hyperplasia of ear pinnae” value is on record as 0.33*. Further, in data set [3] (setting [7]), the “Ear thickness (mm)” value is given as 0.316** mm and the “Total score for epidermal hyperplasia of ear pinnae” value is listed as 0.67**. Further, in data set [3] (setting [8]), the “Ear thickness (mm)” value was 0.329* mm and the “Total score for epidermal hyperplasia of ear pinnae” value is 0.83**. In addition, in data set [3] (setting [9]), the Comprehensive pathological score is on record as 3.50**, the “Pathological score: Degree of keratinization” value was 0.50**, the “Pathological score: Dermal thickness” value came out at 0.67 and the “Pathological score: Epidermal thickness” value is recorded as 1.17**. In addition, the “Pathological score: Inflammatory cell infiltration” value in data set [3] (setting [9]) is 1.17**.
